Experimental data from ChEMBL document CHEMBL5634161, “Discovery of benzamide-based PI3K/HDAC dual inhibitors with marked pro-apoptosis activity in lymphoma cells” (Eur J Med Chem, 2023).
pIC50: −log10 of the molar value.

Assays:
[1] = target: Histone deacetylase 1 (Homo sapiens, UniProt Q13547); assay: Inhibition of HDAC1 (unknown origin) using Boc-Lys(acetyl)-AMC as substrate preincubated for 1 hrs followed by substrate addition and measured after 2 hrs by spectrophotometer based fluorometric assay
Chain of Histone deacetylase 1 (Q13547 whole entry): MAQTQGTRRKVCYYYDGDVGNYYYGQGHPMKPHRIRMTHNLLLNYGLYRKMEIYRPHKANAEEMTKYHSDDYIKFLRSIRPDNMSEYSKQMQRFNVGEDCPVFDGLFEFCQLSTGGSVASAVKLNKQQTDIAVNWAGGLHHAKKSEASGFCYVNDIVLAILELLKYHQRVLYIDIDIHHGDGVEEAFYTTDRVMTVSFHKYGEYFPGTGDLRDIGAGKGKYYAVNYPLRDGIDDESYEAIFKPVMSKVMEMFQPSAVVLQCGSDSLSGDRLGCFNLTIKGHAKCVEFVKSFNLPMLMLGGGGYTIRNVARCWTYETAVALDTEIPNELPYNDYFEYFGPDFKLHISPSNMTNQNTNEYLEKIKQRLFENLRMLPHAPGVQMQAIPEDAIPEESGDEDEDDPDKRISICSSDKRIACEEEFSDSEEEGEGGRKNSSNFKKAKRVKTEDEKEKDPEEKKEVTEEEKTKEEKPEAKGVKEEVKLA

[2] = target: Histone deacetylase 2 (Homo sapiens, UniProt Q92769); assay: Inhibition of HDAC2 (unknown origin) using Boc-Lys(acetyl)-AMC as substrate preincubated for 1 hrs followed by substrate addition and measured after 2 hrs by spectrophotometer based fluorometric assay
Chain of Histone deacetylase 2 (Q92769 whole entry): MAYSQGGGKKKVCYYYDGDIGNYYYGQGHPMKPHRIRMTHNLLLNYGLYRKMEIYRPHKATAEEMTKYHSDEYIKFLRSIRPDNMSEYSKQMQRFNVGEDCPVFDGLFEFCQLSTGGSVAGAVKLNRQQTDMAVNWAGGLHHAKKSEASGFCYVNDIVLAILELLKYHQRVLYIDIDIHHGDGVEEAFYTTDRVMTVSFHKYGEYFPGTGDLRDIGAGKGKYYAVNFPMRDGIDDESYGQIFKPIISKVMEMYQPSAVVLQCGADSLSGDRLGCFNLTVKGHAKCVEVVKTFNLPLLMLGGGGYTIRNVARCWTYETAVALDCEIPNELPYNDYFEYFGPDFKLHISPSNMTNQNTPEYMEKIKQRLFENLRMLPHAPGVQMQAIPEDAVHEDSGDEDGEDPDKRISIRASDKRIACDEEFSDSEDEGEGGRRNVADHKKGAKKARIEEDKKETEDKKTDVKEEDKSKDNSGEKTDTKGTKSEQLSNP

[3] = target: Histone deacetylase 3 (Homo sapiens, UniProt O15379); assay: Inhibition of HDAC3 (unknown origin) using Boc-Lys(acetyl)-AMC as substrate preincubated for 1 hrs followed by substrate addition and measured after 2 hrs by spectrophotometer based fluorometric assay
Chain of Histone deacetylase 3 (O15379 whole entry, canonical isoform): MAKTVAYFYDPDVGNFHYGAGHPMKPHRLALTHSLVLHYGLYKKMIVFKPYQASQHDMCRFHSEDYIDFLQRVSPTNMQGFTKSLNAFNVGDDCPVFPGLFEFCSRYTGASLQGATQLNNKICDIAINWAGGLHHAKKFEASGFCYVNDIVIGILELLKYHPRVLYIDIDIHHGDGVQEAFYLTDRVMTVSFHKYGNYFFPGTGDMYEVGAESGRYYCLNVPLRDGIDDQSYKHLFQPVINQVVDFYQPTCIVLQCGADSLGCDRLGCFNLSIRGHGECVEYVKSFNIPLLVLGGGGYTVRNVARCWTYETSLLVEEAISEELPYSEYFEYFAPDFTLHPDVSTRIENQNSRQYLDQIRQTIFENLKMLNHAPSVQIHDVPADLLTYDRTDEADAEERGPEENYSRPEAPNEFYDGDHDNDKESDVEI

[4] = target: Phosphatidylinositol 4,5-bisphosphate 3-kinase catalytic subunit alpha isoform (Homo sapiens, UniProt P42336); assay: Inhibition of PI3Kalpha (unknown origin) using PIP2 as substrate incubated for 1 hrs in presence of ATP by ADP-Glo kinase assay
Chain of Phosphatidylinositol 4,5-bisphosphate 3-kinase catalytic subunit alpha isoform (P42336 whole entry, canonical isoform): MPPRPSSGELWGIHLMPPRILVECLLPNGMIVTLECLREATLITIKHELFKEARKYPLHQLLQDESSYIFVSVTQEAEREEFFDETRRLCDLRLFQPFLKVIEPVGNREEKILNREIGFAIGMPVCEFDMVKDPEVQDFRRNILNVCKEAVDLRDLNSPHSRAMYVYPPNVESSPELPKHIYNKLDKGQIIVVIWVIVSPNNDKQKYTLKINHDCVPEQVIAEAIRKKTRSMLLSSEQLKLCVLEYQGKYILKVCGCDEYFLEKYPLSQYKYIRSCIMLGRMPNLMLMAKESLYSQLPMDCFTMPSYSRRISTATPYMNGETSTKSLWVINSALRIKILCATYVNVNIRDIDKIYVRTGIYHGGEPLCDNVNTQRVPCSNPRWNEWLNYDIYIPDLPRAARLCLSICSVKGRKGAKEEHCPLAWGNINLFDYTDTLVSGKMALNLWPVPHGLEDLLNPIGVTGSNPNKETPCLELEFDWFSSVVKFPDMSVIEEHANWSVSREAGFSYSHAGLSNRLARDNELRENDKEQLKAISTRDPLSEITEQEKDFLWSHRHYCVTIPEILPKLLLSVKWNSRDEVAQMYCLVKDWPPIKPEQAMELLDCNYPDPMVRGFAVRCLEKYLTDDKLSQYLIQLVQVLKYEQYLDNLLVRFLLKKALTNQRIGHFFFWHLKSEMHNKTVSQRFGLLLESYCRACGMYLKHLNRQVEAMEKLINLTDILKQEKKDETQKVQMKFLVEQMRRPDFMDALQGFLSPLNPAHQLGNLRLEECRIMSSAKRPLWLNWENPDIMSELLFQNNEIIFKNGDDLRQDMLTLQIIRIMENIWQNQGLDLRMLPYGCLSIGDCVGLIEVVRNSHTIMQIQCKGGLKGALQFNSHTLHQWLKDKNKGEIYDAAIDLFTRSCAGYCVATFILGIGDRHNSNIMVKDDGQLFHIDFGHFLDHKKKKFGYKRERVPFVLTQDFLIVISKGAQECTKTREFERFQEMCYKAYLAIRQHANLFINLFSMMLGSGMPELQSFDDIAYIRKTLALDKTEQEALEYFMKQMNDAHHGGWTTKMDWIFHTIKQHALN

[5] = test system: MM1.S; assay: Antiproliferative activity against human MM1.S cells incubated for 48 hrs by resazurin dye based fluorescence micro plate reader analysis; format: functional, cell-based
[6] = test system: JeKo-1; assay: Induction of apoptosis in human JeKo-1 cells assessed as early apoptotic cells at 0.5 uM incubated for 48 hrs by Annexin-V/FITC and PI staining based flow cytometric analysis (reference value: […]); format: functional
[7] = test system: JeKo-1; assay: (§1) Synergistic antiproliferative activity against human JeKo-1 cells assessed as combination index at 1.25 uM incubated for 48 hrs in presence of 5 uM 4-(3-(4-(4-methoxy-6-morpholino-1,3,5-triazin-2-yl)phenyl)urea)-N-(2-ethylamino)ethylbenzamide by resazurin dye based fluorescence microplate reader analysis; format: functional
[8] = test system: JeKo-1; assay: as §1, with “0.625” for “1.25”; format: functional
[9] = test system: HL-60; assay: Antiproliferative activity against human HL-60 cells incubated for 48 hrs by resazurin dye based fluorescence micro plate reader analysis; format: functional, cell-based; details: HL-60, 48 h
[10] = test system: JeKo-1; assay: as §1, with “at 5” for “at 1.25”, “of 2.5” for “of 5”; format: functional
[11] = test system: JeKo-1; assay: as §1, with “at 0.625” for “at 1.25”, “of 0.625” for “of 5”; format: functional
[12] = test system: JeKo-1; assay: as §1, with “at 5” for “at 1.25”, “of 1.25” for “of 5”; format: functional
[13] = test system: JeKo-1; assay: as §1, with “of 2.5” for “of 5”; format: functional
[14] = test system: JeKo-1; assay: as §1, with “2.5” for “1.25”; format: functional
[15] = test system: JeKo-1; assay: Induction of apoptosis in human JeKo-1 cells assessed as late apoptotic cells at 0.25 uM incubated for 48 hrs by Annexin-V/FITC and PI staining based flow cytometric analysis (reference value: 3.66%); format: functional
[16] = test system: JeKo-1; assay: Induction of apoptosis in human JeKo-1 cells assessed as necrotic cells at 0.25 uM incubated for 48 hrs by Annexin-V/FITC and PI staining based flow cytometric analysis (reference value: 1.05%); format: functional
[17] = Cytotoxicity against human HL7702 cells incubated for 48 hrs by resazurin dye based fluorescence micro plate reader analysis; format: toxicity, cell-based; details: HL7702 (L02) cells
[18] = test system: JeKo-1; assay: Induction of apoptosis in human JeKo-1 cells assessed as late apoptotic cells at 1 uM incubated for 48 hrs by Annexin-V/FITC and PI staining based flow cytometric analysis (reference value: 3.66%); format: functional
[19] = test system: JeKo-1; assay: as §1, with “at 5” for “at 1.25”, “of 0.625” for “of 5”; format: functional
[20] = test system: JeKo-1; assay: as §1, with “of 0.625” for “of 5”; format: functional
[21] = test system: JeKo-1; assay: as §1, with “of 1.25” for “of 5”; format: functional
[22] = test system: JeKo-1; assay: Antiproliferative activity against human JeKo-1 cells incubated for 48 hrs by resazurin dye based fluorescence micro plate reader analysis; format: functional, cell-based; details: JeKo-1, 48 h
[23] = test system: JeKo-1; assay: as §1, with “5” for “1.25”; format: functional
[24] = test system: JeKo-1; assay: Induction of apoptosis in human JeKo-1 cells assessed as late apoptotic cells at 0.5 uM incubated for 48 hrs by Annexin-V/FITC and PI staining based flow cytometric analysis (reference value: 3.66%); format: functional
[25] = test system: JeKo-1; assay: Induction of apoptosis in human JeKo-1 cells assessed as early apoptotic cells at 1 uM incubated for 48 hrs by Annexin-V/FITC and PI staining based flow cytometric analysis (reference value: […]); format: functional
[26] = test system: JeKo-1; assay: Induction of apoptosis in human JeKo-1 cells assessed as early apoptotic cells at 0.25 uM incubated for 48 hrs by Annexin-V/FITC and PI staining based flow cytometric analysis (reference value: […]); format: functional
[27] = test system: JeKo-1; assay: Induction of apoptosis in human JeKo-1 cells assessed as necrotic cells at 0.5 uM incubated for 48 hrs by Annexin-V/FITC and PI staining based flow cytometric analysis (reference value: 1.05%); format: functional
[28] = test system: JeKo-1; assay: Induction of apoptosis in human JeKo-1 cells assessed as viable cells at 1 uM incubated for 48 hrs by Annexin-V/FITC and PI staining based flow cytometric analysis (reference value: 94.1%); format: functional; details: read-out: Activity
[29] = test system: JeKo-1; assay: Induction of apoptosis in human JeKo-1 cells assessed as necrotic cells at 1 uM incubated for 48 hrs by Annexin-V/FITC and PI staining based flow cytometric analysis (reference value: 1.05%); format: functional
[30] = test system: JeKo-1; assay: as §1, with “at 2.5” for “at 1.25”, “of 2.5” for “of 5”; format: functional
[31] = test system: JeKo-1; assay: Induction of apoptosis in human JeKo-1 cells assessed as viable cells at 0.25 uM incubated for 48 hrs by Annexin-V/FITC and PI staining based flow cytometric analysis (reference value: 94.1%); format: functional; details: read-out: Activity
[32] = test system: JeKo-1; assay: as §1, with “at 2.5” for “at 1.25”, “of 1.25” for “of 5”; format: functional
[33] = test system: JeKo-1; assay: Induction of apoptosis in human JeKo-1 cells assessed as viable cells at 0.5 uM incubated for 48 hrs by Annexin-V/FITC and PI staining based flow cytometric analysis (reference value: 94.1%); format: functional; details: read-out: Activity
[34] = test system: MDA-MB-231; assay: Antiproliferative activity against human MDA-MB-231 cells incubated for 48 hrs by resazurin dye based fluorescence micro plate reader analysis; format: functional, cell-based; details: MDA-MB-231, 48 h
[35] = test system: JeKo-1; assay: as §1, with “at 0.625” for “at 1.25”, “of 1.25” for “of 5”; format: functional
[36] = test system: JeKo-1; assay: as §1, with “at 2.5” for “at 1.25”, “of 0.625” for “of 5”; format: functional
[37] = test system: JeKo-1; assay: as §1, with “at 0.625” for “at 1.25”, “of 2.5” for “of 5”; format: functional

`COc1nc(-c2ccc(NC(=O)Nc3ccc(C(=O)NCCCCCCC(=O)Nc4ccccc4N)cc3)cc2)nc(N2CCOCC2)n1` showed a pIC50 [1] of 6.47, a pIC50 [2] of 6.34 and a pIC50 [3] of 7.61. For the same molecule, the pIC50 [4] was 7.05.
`CC(=O)Nc1ccc(C(=O)Nc2ccccc2N)cc1` [TACEDINALINE] gave a pIC50 [5] of 5.33, an Activity [6] of 1.48% and a CI [7] of 0.191. For the same molecule, the CI [8] was 0.43, the pIC50 [9] was 5.55 and the CI [10] was 0.221. It also gave a CI [11] of 0.711, a CI [12] of 0.39 and a CI [13] of 0.342. It also gave a CI [14] of 0.119, an Activity [15] of 5.6% and an Activity [16] of 0.37%. The IC50 at 48 h [17] was greater than 100000 nM, the Activity [18] was 4.73% and the CI [19] was 0.61. It also gave a CI [20] of 0.629, a CI [21] of 0.431 and a pIC50 [22] of 5.72. It also gave a CI [23] of 0.191, an Activity [24] of 5.62% and an Activity [25] of 2.3%. For the same molecule, the Activity [26] was 1.46%, the Activity [27] was 0.51% and the viability at 1 µM [28] was 92.4%. It also gave an Activity [29] of 0.59%, a CI [30] of 0.274 and a viability at 0.25 µM [31] of 92.6%. It also gave a CI [32] of 0.443, a viability at 0.5 µM [33] of 92.4% and a pIC50 [34] of 4.96. The CI [35] was 0.575, the pIC50 [4] was less than 5.00 and the CI [36] was 0.592. For the same molecule, the CI [37] was 0.475.
Molecule `Nc1cc(F)ccc1NC(=O)c1ccc(NC(=O)Nc2ccc(-c3nc(N4CCOCC4)nc(N4CCOCC4)n3)cc2)cc1` has a pIC50 [1] of less than 5.00, a pIC50 [2] of less than 5.00 and a pIC50 [3] of 6.30. For the same molecule, the pIC50 [4] was 7.77.
In the case of `Nc1ccccc1NC(=O)CCCCCCNC(=O)c1ccc(NC(=O)Nc2ccc(-c3nc(OC4CCOC4)nc(N4CCOCC4)n3)cc2)cc1` (stereo not given), the pIC50 [1] was 6.66, the pIC50 [2] was 6.62 and the pIC50 [3] was 7.16. For the same molecule, the pIC50 [4] was 7.78.
In the case of `Nc1ccccc1NC(=O)CCCCCNC(=O)c1ccc(NC(=O)Nc2ccc(-c3nc(N4CCOCC4)nc(N4CCOCC4)n3)cc2)cc1`, the pIC50 [1] was 6.64, the pIC50 [2] was 6.22 and the pIC50 [3] was 7.00. It also gave a pIC50 [4] of 7.76.
`Nc1ccccc1NC(=O)c1ccc(NC(=O)Nc2ccc(-c3nc(OC4COC4)nc(N4CCOCC4)n3)cc2)cc1` gave a pIC50 [1] of less than 5.00, a pIC50 [2] of less than 5.00 and a pIC50 [3] of less than 5.00. It also gave a pIC50 [4] of 8.62.
In the case of `Nc1ccccc1NC(=O)CCCCCCNC(=O)c1ccc(NC(=O)Nc2ccc(-c3nc(OC4COC4)nc(N4CCOCC4)n3)cc2)cc1`, the pIC50 [1] was 6.75, the pIC50 [2] was 6.77 and the pIC50 [3] was 7.25. For the same molecule, the pIC50 [4] was 8.05.
With `Nc1ccccc1NC(=O)CCCNC(=O)c1ccc(NC(=O)Nc2ccc(-c3nc(N4CCOCC4)nc(N4CCOCC4)n3)cc2)cc1` the pIC50 [1] was less than 5.00, the pIC50 [2] was less than 5.00 and the pIC50 [3] was less than 5.00. The pIC50 [4] was 7.94.
`Nc1ccccc1NC(=O)c1ccc(NC(=O)Nc2ccc(-c3nc(N4CCOCC4)nc(N4CCOCC4)n3)cc2)cc1` showed a pIC50 [1] of less than 5.00, a pIC50 [2] of less than 5.00 and a pIC50 [3] of 6.87. It also gave a pIC50 [4] of 8.19.
`Nc1ccccc1NC(=O)CCCCCCNC(=O)c1ccc(NC(=O)Nc2ccc(-c3nc(N4CCOCC4)nc(N4CCOCC4)n3)cc2)cc1` showed a pIC50 [1] of 6.39, a pIC50 [2] of 6.53 and a pIC50 [3] of 7.12. For the same molecule, the pIC50 [4] was 7.53.
